Experimental data as given in ChEMBL document CHEMBL5252530, “Biological importance of structurally diversified chromenes” (Eur J Med Chem, 2016).
In brackets after ≈: the same amount, converted by molar mass.

System: Mycobacterium tuberculosis variant bovis
Experiment: Antibacterial activity against Mycobacterium bovis BCG assessed as reduction in cell viability measured after 14 days by microdrop agar proportion test
Assay type: functional
Conditions: 336 h, time 14 day

Q: Which MIC does the source give for `COC(=O)c1ccc(C(=O)Oc2ccc3c(c2)OC(C)(C)C=C3C)cc1` here?
A: 2 µg/mL (≈ 5.68 µM)
